Test results taken from patent US7205382B2, “Peptides, the production and use thereof for binding immunoglobulins” (Fresenius Medical Care Affina GmbH, priority 2000, dated 2007).
Bridge positions count the residues as written; N and C are the ends. Square brackets hold non-standard residues; d marks the D form. Ends that are not written are not given here. cellulose = not defined here; βAla = NCCC(=O)O

What was measured:
Assay type in all cases: binding
Set-up in all cases: key: No binding of immunoglobulin for the defined peptide variant, detection negative: 0; Binding of immunoglobulin for the defined peptide variant, detection positive: +
serum albumin = test: Cellulose-immobilized 13-mer peptide variants incubated with serum albumin (negative control), anti-human IgG-AP detection; conditions: blocking buffer without addition, 3 h room temperature
Method in brief: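 Read-out was colorimetric NBT/BCIP staining (developing buffer pH 9.5) after alkaline phosphatase-conjugated anti-human IgG at 1.2 μg/ml. Before this, the immobilized peptides had been incubated 3 h at room temperature with 1 μg/ml IgG-Fc, 1:10,000 diluted serum, or albumin-containing blocking buffer without addition.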

[1] = test system: immunoglobulins in human plasma; test: Cellulose-immobilized 13-mer peptide variants incubated with human plasma, anti-human IgG-AP detection; conditions: human plasma as sample, diluted 1:10,000 in blocking buffer, 3 h room temperature
Method in brief: (§1)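 SPOT-type 13-mer peptides on cellulose with a (βA)(βA) spacer, blocked in 5% saccharose/4% BSA in T-TBS pH 8.0. Incubated 3 h at RT with human IgG-Fc (1 μg/ml) or human serum/plasma (1:10,000), or with blocking buffer alone as the albumin specificity control. Bound IgG detected with AP-anti-human IgG (1.2 μg/ml) and NBT/BCIP colorimetric development at pH 9.5.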

human IgG-Fc = test: Cellulose-immobilized 13-mer peptide variants incubated with human IgG-Fc, anti-human IgG-AP detection; conditions: IgG-Fc 1 μg/ml in blocking buffer, 3 h room temperature
Method in brief: as §1

Result for incubation with serum albumin (immunoglobulin binding detection) (serum albumin) | Result for incubation with human plasma (immunoglobulin binding detection) [1] | Result for incubation with human IgG-Fc (immunoglobulin binding detection) (human IgG-Fc) | Substance
0 | 0 | 0 | 07F: cellulose-bound 13-mer variant DCAWHLFELVWCT-(βA)(βA) (DCAWHLFELVWCT-{βAla-βAla-cellulose}; disulfide 2-12 (inferred); not fully specified (N-terminus); printed as DCAWHLFELVWCT-(βA)(βA); reading uncertain)
0 | 0 | 0 | 06I: cellulose-bound 13-mer variant DCAWHIGELVWCT-(βA)(βA) (DCAWHIGELVWCT-{βAla-βAla-cellulose}; disulfide 2-12 (inferred); not fully specified (N-terminus); printed as DCAWHIGELVWCT-(βA)(βA); reading uncertain)
0 | 0 | 0 | 01T: cellulose-bound 13-mer variant TCAWHLGELVWCT-(βA)(βA) (TCAWHLGELVWCT-{βAla-βAla-cellulose}; disulfide 2-12 (inferred); reading uncertain; also: printed as TCAWHLGELVWCT-(βA)(βA))
0 | 0 | + | 06S: cellulose-bound 13-mer variant DCAWHSGELVWCT-(βA)(βA) (DCAWHSGELVWCT-{βAla-βAla-cellulose}; disulfide 2-12 (inferred); not fully specified (N-terminus); printed as DCAWHSGELVWCT-(βA)(βA); reading uncertain)
0 | 0 | 0 | 11F: cellulose-bound 13-mer variant DCAWHLGELVFCT-(βA)(βA) (DCAWHLGELVFCT-{βAla-βAla-cellulose}; disulfide 2-12 (inferred); reading uncertain; also: printed as DCAWHLGELVFCT-(βA)(βA))
0 | 0 | 0 | 08Y: cellulose-bound 13-mer variant DCAWHLGYLVWCT-(βA)(βA) (DCAWHLGYLVWCT-{βAla-βAla-cellulose}; disulfide 2-12 (inferred); reading uncertain; also: printed as DCAWHLGYLVWCT-(βA)(βA))

Second part, the substance before the results:

Substance | Result for incubation with serum albumin (immunoglobulin binding detection) (serum albumin) | Result for incubation with human plasma (immunoglobulin binding detection) [1] | Result for incubation with human IgG-Fc (immunoglobulin binding detection) (human IgG-Fc)
10Q: cellulose-bound 13-mer variant DCAWHLGELQWCT-(βA)(βA) (DCAWHLGELQWCT-{βAla-βAla-cellulose}; disulfide 2-12 (inferred); reading uncertain; also: printed as DCAWHLGELQWCT-(βA)(βA)) | 0 | 0 | 0
07R: cellulose-bound 13-mer variant DCAWHLRELVWCT-(βA)(βA) (DCAWHLRELVWCT-{βAla-βAla-cellulose}; disulfide 2-12 (inferred); not fully specified (N-terminus); printed as DCAWHLRELVWCT-(βA)(βA); reading uncertain) | 0 | 0 | 0
11S: cellulose-bound 13-mer variant DCAWHLGELVSCT-(βA)(βA) | 0 | 0 | 0
05N: cellulose-bound 13-mer variant DCAWNLGELVWCT-(βA)(βA) (disulfide 2-12 (inferred); not fully specified (N-terminus, C-terminus); printed as DCAWNLGELVWCT-(βA)(βA); also: cellulose-bound) | 0 | 0 | 0
08P: cellulose-bound 13-mer variant DCAWHLGPLVWCT-(βA)(βA) (DCAWHLGPLVWCT-{βAla-βAla-cellulose}; disulfide 2-12 (inferred); not fully specified (N-terminus); printed as DCAWHLGPLVWCT-(βA)(βA); reading uncertain) | 0 | 0 | 0
02V: cellulose-bound 13-mer variant DVAWHLGELVWCT-(βA)(βA) (DVAWHLGELVWCT[βAla][βAla]; not fully specified; printed as DVAWHLGELVWCT-(βA)(βA); also: cellulose-bound) | 0 | 0 | 0
02D: cellulose-bound 13-mer variant DDAWHLGELVWCT-(βA)(βA) (DDAWHLGELVWCT[βAla][βAla]; not fully specified; printed as DDAWHLGELVWCT-(βA)(βA); also: cellulose-bound) | 0 | 0 | 0
03K: cellulose-bound 13-mer variant DCKWHLGELVWCT-(βA)(βA) (DCKWHLGELVWCT-{βAla-βAla-cellulose}; disulfide 2-12 (inferred); reading uncertain; also: printed as DCKWHLGELVWCT-(βA)(βA)) | 0 | 0 | +
05D: cellulose-bound 13-mer variant DCAWDLGELVWCT-(βA)(βA) (disulfide 2-12 (inferred); not fully specified (N-terminus, C-terminus); printed as DCAWDLGELVWCT-(βA)(βA); also: cellulose-bound) | 0 | 0 | 0
04M: cellulose-bound 13-mer variant DCAMHLGELVWCT-(βA)(βA) (DCAMHLGELVWCT[βAla][βAla]; disulfide 2-12 (inferred); also: cellulose-bound) | 0 | + | +
01D: starting 13-mer DCAWHLGELVWCT-(βA)(βA), R1=amino, cellulose-bound | 0 | + | +
